Patent US20210355116A1, “METHODS OF PRODUCING NARONAPRIDE TRIHYDRATE” (Renexxion, LLC, priority 2018, published 2021)
Counter-ions that a name gives are not always drawn. Like-named read-outs stand apart in the source and are kept apart here.

Key:
[1] = Bulk stability under stressed conditions, one or two weeks; type: physicochemical; conditions: all temperatures and humidities tested, one week or two weeks
Method: Bulk Stability Under Stressed Conditions: About 20-30 mg of the trihydrate form of the dihydrochloride salt was weighed into HPLC vials and stressed at 25° C. and 60% relative humidity (open), 40° C. and 75% relative humidity (open), and 60° C. (closed) for one week and for two weeks.

[2] = Stability of the trihydrate form stored in bulk in a GMP storage facility; type: physicochemical; conditions: room temperature, RH >30%, up to 11 years
Method: The trihydrate form was evaluated for stability with regard to purity and strength over a time period of up to 11 years, by storing it in a GMP facility under controlled conditions of temperature and relative humidity (temperature=room temperature and relative humidity >30%).

[3] = Bulk stability in very high humidity, one week; type: physicochemical
Method: Bulk Stability in Very High Humidity: The trihydrate form of the dihydrochloride salt was stressed at 25° C. and 97% relative humidity (open), 40° C. and 96% relative humidity (open), and 60° C. and 96% relativity humidity (open) for one week.

[4] = for Resulting Form: slurry, antisolvent Water, ambient, 3 weeks
Method: Noncompetitive Slurry Experiments for Polymorph Screening: Noncompetitive slurry experiments were performed as a supplemental polymorph screening method. When suspensions of a polymorphic material are prepared, any polymorphic form with a lower solubility (more thermodynamically stable form) can nucleate. The nucleated forms can convert all the residual solids to the nucleated form via solvent-mediated phase transition. Suspensions of the isolated Form I were prepared by adding excess solid to several different solvent systems. The suspensions were stirred vigorously at ambient temperature for 3 weeks. The remaining solids were collected by vacuum filtration and analyzed by powder X-ray diffraction to determine if any changes in the crystalline form of the solids occurred.

[5] = 12-month stability of the anhydrous form at controlled temperature and humidity (HPLC, water content); type: physicochemical; conditions: 25° C./60% RH
Method: The dihydrochloride salt, anhydrous form of (3S, 4R, 3′R)-6-[4-(4-amino-5-chloro-2-methoxy-benzoylamino)-3-methoxy-piperidin-1-yl]-hexanoic acid 1-azabicyclo[2.2.2]oct-3′-yl ester, was placed in stability chambers with temperature and humidity controlled, for up to 12 months. The temperature was set at 25° C., and the relative humidity was set at 60%. The samples were assayed at time zero, then at 3, 6, 9, and 12 months using an HPLC method. The HPLC conditions were as follows:
Column: Inertsil C8-3, 250 mm length, 3 mm diameter, 5 um particle size
Mobile Phase A: 2000 mL water+3 mL formic acid
Mobile Phase B: 1000 mL methanol+3 mL formic acid
Detection wavelength: 275 nm

[6] = Dehydration profile by thermographic analysis (TGA); type: physicochemical; conditions: 25° C. to 250° C.
Method: Thermographic analysis (TGA) curves were generated for the anhydrate and trihydrate using a Perkin Elmer TGA-7. Three to five milligram samples were weighed into aluminum sample pans and run under dry nitrogen at 5° C./minute from 25° C. to 250° C. The data were exported to Excel to enable plotting.
The two differ in the appearance of the dehydration mass loss observed for the trihydrate and absent as expected from the anhydrate. Dehydration of the trihydrate started immediately upon start of heating and was complete by approximately 50° C. Complete dehydration below 100° C. is consistent with the assignment of the trihydrate as a channel type hydrate.

With COc1cc(N)c(Cl)cc1C(=O)N[C@@H]1CCN(CCCCCC(=O)O[C@H]2CN3CCC2CC3)C[C@@H]1OC [Compound 1, (3S, 4R, 3′R)-6-[4-(4-amino-5-chloro-2-methoxy-benzoylamino)-3-methoxy-piperidin-1-yl]-hexanoic acid 1-azabicyclo[2.2.2] oct-3′-yl ester di-hydrochloride salt] the “Physical and chemical stability” value [1] was “both physically and chemically stable”, the “Stability under GMP storage” value [2] was “stable” and the “Physical and chemical stability” value ([3]; 25° C. and 97% relative humidity (open)) was “both physically and chemically stable”. The “Physical and chemical stability” value ([3]; temperature elevated to 40° C. or 60° C., 96% relative humidity (open)) was “underwent liquescence”.

In the case of COc1cc(N)c(Cl)cc1C(=O)N[C@@H]1CCN(CCCCCC(=O)O[C@H]2CN3CCC2CC3)C[C@@H]1OC [Form I, (3S, 4R, 3′R)-6-[4-(4-amino-5-chloro-2-methoxy-benzoylamino)-3-methoxy-piperidin-1-yl]-hexanoic acid 1-azabicyclo[2.2.2]oct-3′-yl ester], the “Thermodynamic stability among anhydrous forms” value ([4]; based on the outcome of the slurry experiments) was “most thermodynamically stable anhydrous form”, the “Resulting Form” value ([4]; solvent 1-Propanol) was “Form 1” and the “Resulting Form” value ([4]; solvent Acetonitrile) was “Form 1”. For the same molecule, the “Resulting Form” value ([4]; solvent Ethanol) was “Form 1”, the “Resulting Form” value ([4]; solvent Methanol) was “Form 1” and the “Resulting Form” value ([4]; solvent Water) was “Form 1”.

In the case of “(3S, 4R, 3′R)-6-[4-(4-amino-5-chloro-2-methoxy-benzoylamino)-3-methoxy-piperidin-1-yl]-hexanoic acid 1-azabicyclo[2.2.2]oct-3′-yl ester”, the “Purity HPLC (Area %)” value ([5]; 0 months) was 99.3 Area %, the “Water Content” value ([5]; 0 months) was 0.45% and the “Purity HPLC (Area %)” value ([5]; 3 months) was 99.2 Area %. The “Water Content” value ([5]; 3 months) was 6.47%, the “Purity HPLC (Area %)” value ([5]; 6 months) was 99.3 Area % and the “Water Content” value ([5]; 6 months) was 8.47%. For the same molecule, the “Purity HPLC (Area %)” value ([5]; 9 months) was 99.2 Area %, the “Water Content” value ([5]; 9 months) was 8.20% and the “Purity HPLC (Area %)” value ([5]; 12 months) was 99.3 Area %. For the same molecule, the “Water Content” value ([5]; 12 months) was 8.43%, the “Decrease in strength of the active ingredient” value ([5]; due to increase in water content over 6 to 12 months) was “approximately 8%” and the “Dehydration mass loss (TGA)” value [6] was “absent”.
